Test results taken from patent publication US9169254B2, “Spiroimidazolone derivative” (Chugai Seiyaku Kabushiki Kaisha, priority 2009, dated 2015).

Target: T1, human PTH1 receptor (Homo sapiens, UniProt Q03431)
T1 sequence (Q03431 27-593): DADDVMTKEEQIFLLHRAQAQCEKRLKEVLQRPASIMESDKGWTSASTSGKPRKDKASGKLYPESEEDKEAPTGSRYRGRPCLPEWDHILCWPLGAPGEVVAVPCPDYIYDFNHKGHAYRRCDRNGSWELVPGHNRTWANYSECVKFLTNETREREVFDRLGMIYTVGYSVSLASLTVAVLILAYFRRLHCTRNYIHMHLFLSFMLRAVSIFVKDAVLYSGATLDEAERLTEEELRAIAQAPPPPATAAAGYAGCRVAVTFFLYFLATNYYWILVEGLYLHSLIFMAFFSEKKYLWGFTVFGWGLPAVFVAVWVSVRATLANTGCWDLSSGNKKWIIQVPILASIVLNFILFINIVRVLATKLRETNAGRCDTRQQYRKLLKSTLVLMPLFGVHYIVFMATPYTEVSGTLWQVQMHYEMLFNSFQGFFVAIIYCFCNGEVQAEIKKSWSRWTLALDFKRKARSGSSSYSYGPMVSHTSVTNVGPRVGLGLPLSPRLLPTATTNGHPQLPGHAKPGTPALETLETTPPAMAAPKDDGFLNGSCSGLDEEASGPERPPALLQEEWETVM
Assay: In vitro cAMP signal activity in HKRK-B7 cells (LLC-PK1 cells overexpressing the human PTH1 receptor)
Assay type: cell-based
Conditions: HKRK-B7 cells; compound at 1×10^−3 M; cAMP produced as percentage of that produced by hPTH(1-34) at 100 nM

cAMP production activity (%)	SMILES
101	Cc1cc(N(C)C(N)=O)c(C)cc1CCS(=O)(=O)N1CCC2(CC1)N=C(C1CCC(C)CC1)NC2=O (stereo not drawn) [Compound 680, 1-(2,5-dimethyl-4-{2-[2-(4-methyl-cyclohexyl)-4-oxo-1,3,8-triaza-spiro[4.5]dec-1-ene-8-sulfonyl]-ethyl}-phenyl)-1-methyl-urea]
55	Cc1cc(CN(CCO)C(=O)OC(C)(C)C)ccc1CCS(=O)(=O)N1CCC2(CC1)N=C(C1CCCCC1)NC2=O [Compound 681, {4-[2-(2-Cyclohexyl-4-oxo-1,3,8-triaza-spiro[4.5]dec-1-ene-8-sulfonyl)-ethyl]-3-methyl-benzyl}-(2-hydroxy-ethyl)-carbamic acid tert-butyl ester]
81	COc1cc(N(C)C(N)=O)cc(C)c1CCS(=O)(=O)N1CCC2(CC1)N=C(C1CCC(C)CC1)NC2=O (stereo not drawn) [Compound 682, 1-(3-Methoxy-5-methyl-4-{2-[2-(4-methyl-cyclohexyl)-4-oxo-1,3,8-triaza-spiro[4.5]dec-1-ene-8-sulfonyl]-ethyl}-phenyl)-1-methyl-urea]
74	Cc1cc(N(C)C(N)=O)cc(Cl)c1CCS(=O)(=O)N1CCC2(CC1)N=C(C1CCC(C)CC1)NC2=O (stereo not drawn) [Compound 683, 1-(3-Chloro-5-methyl-4-{2-[2-(4-methyl-cyclohexyl)-4-oxo-1,3,8-triaza-spiro[4.5]dec-1-ene-8-sulfonyl]-ethyl}-phenyl)-1-methyl-urea]
101	COc1c(N(C)C(N)=O)cc(C)c(CCS(=O)(=O)N2CCC3(CC2)N=C([C@H]2CC[C@H](C)CC2)NC3=O)c1C [Compound 684, 1-(2-methoxy-3,5-dimethyl-4-{2-[2-(4-methyl-cyclohexyl)-4-oxo-1,3,8-triaza-spiro[4.5]dec-1-ene-8-sulfonyl]-ethyl}-phenyl)-1-methyl-urea]
46	Cc1cc2[nH]c(=O)[nH]c(=O)c2c(C)c1CCS(=O)(=O)N1CCC2(CC1)N=C(C1CCC(C)CC1)NC2=O (stereo not drawn) [Compound 685, 5,7-Dimethyl-6-{2-[2-(4-methyl-cyclohexyl)-4-oxo-1,3,8-triaza-spiro[4.5]dec-1-ene-8-sulfonyl]-ethyl}-1H-quinazoline-2,4-dione]
22	NCCn1ccc2c(/C=C/S(=O)(=O)N3CCC4(CC3)N=C(C3CCCCC3)NC4=O)cccc21 [Compound 686, 8-{(E)-2-[1-(2-Amino-ethyl)-1H-indol-4-yl]-ethenesulfonyl}-2-cyclohexyl-1,3,8-triaza-spiro[4.5]dec-1-en-4-one]
25	NCc1ccc(/C=C/S(=O)(=O)N2CCC3(CC2)N=C(C2CCCCC2)NC3=O)cc1 [Compound 687, 8-[(E)-2-(4-aminomethyl-phenyl)-ethenesulfonyl]-2-cyclohexyl-1,3,8-triaza-spiro[4.5]dec-1-en-4-one]
55	Cc1cc(NC(=O)[C@@H](N)CO)ccc1/C=C/S(=O)(=O)N1CCC2(CC1)N=C(c1cccc(C(F)(F)F)c1)NC2=O [Compound 688, (S)-2-Amino-3-hydroxy-N-(3-methyl-4-{(E)-2-[4-oxo-2-(3-trifluoromethyl-phenyl)-1,3,8-triaza-spiro[4.5]dec-1-ene-8-sulfonyl]-vinyl}-phenyl)-propionamide]
27	Cc1cc(N(C2CCNCC2)S(C)(=O)=O)cc(C)c1/C=C/S(=O)(=O)N1CCC2(CC1)N=C(c1cccc(OC(F)(F)F)c1)NC2=O [Compound 689, N-(3,5-Dimethyl-4-{(E)-2-[4-oxo-2-(3-trifluoromethoxy-phenyl)-1,3,8-triaza-spiro[4.5]dec-1-ene-8-sulfonyl]-vinyl}-phenyl)-N-piperidin-4-yl-methanesulfonamide]
86	CNc1cc(C)c(/C=C/S(=O)(=O)N2CCC3(CC2)N=C(CCCCCCCCC(F)(F)F)NC3=O)c(C)c1 [Compound 690, 8-[(E)-2-(2,6-Dimethyl-4-methylamino-phenyl)-ethenesulfonyl]-2-(9,9,9-trifluoro-nonyl)-1,3,8-triaza-spiro[4.5]dec-1-en-4-one]
69	CNc1cc(C)c(/C=C/S(=O)(=O)N2CCC3(CC2)N=C(CCCCCCCC(F)(F)C(F)(F)F)NC3=O)c(C)c1 [Compound 691, 8-[(E)-2-(2,6-Dimethyl-4-methylamino-phenyl)-ethenesulfonyl]-2-(8,8,9,9,9-pentafluoro-nonyl)-1,3,8-triaza-spiro[4.5]dec-1-en-4-one]
101	CCCCCCCCCC1=NC2(CCN(S(=O)(=O)/C=C/c3c(C)cc(N(C)C(N)=O)cc3C)CC2)C(=O)N1 [Compound 692, 1-{3,5-Dimethyl-4-[(E)-2-(2-nonyl-4-oxo-1,3,8-triaza-spiro[4.5]dec-1-ene-8-sulfonyl)-vinyl]-phenyl}-1-methyl-urea]
103	COc1c(N(C)C(N)=O)cc(C)c(/C=C/S(=O)(=O)N2CCC3(CC2)N=C([C@H]2CC[C@H](C)CC2)NC3=O)c1C [Compound 693, 1-(2-Methoxy-3,5-dimethyl-4-{(E)-2-[2-(4-methyl-cyclohexyl)-4-oxo-1,3,8-triaza-spiro[4.5]dec-1-ene-8-sulfonyl]-vinyl}-phenyl)-1-methyl-urea]
77	Cc1cc(N(CCF)C(N)=O)cc(C)c1/C=C/S(=O)(=O)N1CCC2(CC1)N=C(C1CCC(CCC(F)(F)F)CC1)NC2=O (stereo not drawn) [Compound 694, 1-[3,5-Dimethyl-4-((E)-2-{4-oxo-2-[4-(3,3,3-trifluoro-propyl)-cyclohexyl]-1,3,8-triaza-spiro[4.5]dec-1-ene-8-sulfonyl}-vinyl)-phenyl]-1-(2-fluoro-ethyl)-urea]
78	Cc1cc(N(C)C(N)=O)cc(Cl)c1/C=C/S(=O)(=O)N1CCC2(CC1)N=C(C1CCC(C)CC1)NC2=O (stereo not drawn) [Compound 695, 1-(3-Chloro-5-methyl-4-{(E)-2-[2-(4-methyl-cyclohexyl)-4-oxo-1,3,8-triaza-spiro[4.5]dec-1-ene-8-sulfonyl]-vinyl}-phenyl)-1-methyl-urea]
132	Cc1cc(N(C)C(N)=O)cc(C)c1CCS(=O)(=O)N1CCC2(CC1)N=C(C1CCC(CCC(F)(F)F)CC1)NC2=O (stereo not drawn) [Compound 696, 1-[3,5-Dimethyl-4-(2-{4-oxo-2-[4-(3,3,3-trifluoro-propyl)-cyclohexyl]-1,3,8-triaza-spiro[4.5]dec-1-ene-8-sulfonyl}-ethyl)-phenyl]-1-methyl-urea]
60	Cc1cc(OC[C@H](O)CO)cc(C)c1/C=C/S(=O)(=O)N1CCC2(CC1)N=C(C1CCC(CCC(F)(F)F)CC1)NC2=O (stereo partly drawn) [Compound 697, 8-{(E)-2-[4-((R)-2,3-Dihydroxy-propoxy)-2,6-dimethyl-phenyl]-ethenesulfonyl}-2-[4-(3,3,3-trifluoro-propyl)-cyclohexyl]-1,3,8-triaza-spiro[4.5]dec-1-en-4-one]
62	Cc1cc(OCCOC[C@H](O)CO)cc(C)c1/C=C/S(=O)(=O)N1CCC2(CC1)N=C(C1CCC(CCC(F)(F)F)CC1)NC2=O (stereo partly drawn) [Compound 698, 8-((E)-2-{4-[2-((R)-2,3-dihydroxy-propoxy)-ethoxy]-2,6-dimethyl-phenyl}-ethenesulfonyl)-2-[4-(3,3,3-trifluoro-propyl)-cyclohexyl]-1,3,8-triaza-spiro[4.5]dec-1-en-4-one]
101	CC(=O)N(CCOCCO)c1cc(C)c(/C=C/S(=O)(=O)N2CCC3(CC2)N=C(C2CCC(CCC(F)(F)F)CC2)NC3=O)c(C)c1 (stereo not drawn) [Compound 699, N-[3,5-Dimethyl-4-((E)-2-{4-oxo-2-[4-(3,3,3-trifluoro-propyl)-cyclohexyl]-1,3,8-triaza-spiro[4.5]dec-1-ene-8-sulfonyl}-vinyl)-phenyl]-N-[2-(2-hydroxy-ethoxy)-ethyl]-acetamide]
121	CCCCCCCCCC1=NC2(CCN(S(=O)(=O)/C=C/c3ccc(N(CCOCCO)C(C)=O)cc3C)CC2)C(=O)N1 [Compound 700, N-[2-(2-Hydroxy-ethoxy)-ethyl]-N-{3-methyl-4-[(E)-2-(2-nonyl-4-oxo-1,3,8-triaza-spiro[4.5]dec-1-ene-8-sulfonyl)-vinyl]-phenyl}-acetamide]
140	CCCCCCCCCC1=NC2(CCN(S(=O)(=O)/C=C/c3c(C)cc(N(CCO)C(C)=O)cc3C)CC2)C(=O)N1 [Compound 701, N-{3,5-dimethyl-4-[(E)-2-(2-nonyl-4-oxo-1,3,8-triaza-spiro[4.5]dec-1-ene-8-sulfonyl)-vinyl]-phenyl}-N-(2-hydroxy-ethyl)-acetamide]
84	O=C1NC(C2CCCCC2)=NC12CCN(S(=O)(=O)/C=C/c1ccc3c(ccn3C[C@H](O)CO)c1)CC2 [Compound 702, 2-Cyclohexyl-8-{(E)-2-[1-((S)-2,3-dihydroxy-propyl)-1H-indol-5-yl]-ethenesulfonyl}-1,3,8-triaza-spiro[4.5]dec-1-en-4-one]
68	O=C1NC(C2CCC(CCC(F)(F)F)CC2)=NC12CCN(S(=O)(=O)/C=C/c1cccc3c1ccn3CCOC[C@@H](O)CO)CC2 (stereo partly drawn) [Compound 704, 8-((E)-2-{1-[2-((S)-2,3-Dihydroxy-propoxy)-ethyl]-1H-indol-4-yl}-ethenesulfonyl)-2-[4-(3,3,3-trifluoro-propyl)-cyclohexyl]-1,3,8-triaza-spiro[4.5]dec-1-en-4-one]
